The values that follow come from patent US8518976B2, “Heteroaryl-substituted amides comprising a saturated linker group, and their use as pharmaceuticals” (Sanofi, priority 2005, dated 2013).

Where only a bound is given, the exact number is not on record here.

For the assay, the system named is eNOS promoter. As to the kind of experiment: Activation of eNOS transcription (eNOS promoter-luciferase reporter gene assay). Type of assay: cell-based. The note with it: human endothelial cell line stably transfected with eNOS promoter-luciferase construct, 18 h incubation, determined graphically; read-out: EC50 values of transcription induction ratios (TIR). Here is the method: Activation of eNOS transcription was measured as described in detail by L^1 et al., “Activation of protein kinase C alpha and/or epsilon enhances transcription of the human endothelial nitric oxide synthase gene”, Mol. Pharmacol. 53 (1998) 630. Briefly, a 3.5 kB long fragment 5′ of the starting codon of the eNOS gene was cloned, sequenced and cloned in firefly luciferase expression plasmids to monitor activation of the eNOS promoter by reporter gene activity. A human endothelial cell line stable transfected and expressing this promoter-reporter construct was used for compound testing. Cells were incubated for 18 h with the compounds.
All compounds were dissolved in sterile dimethyl sulfoxide (DMSO). A final concentration of 0.5% DMSO in complete medium was allowed. Induction of reporter gene expression in these cells was measured using a standard luciferase assay system (Promega, Cat. No. E150) according to the manufacturer's instructions. Luciferase induction in cells incubated with compounds were compared to those incubated with solvent alone. The ratio of both activities (transcription induction ratio, TIR) was plotted as a function of compound concentration. Typically, TIR values started at low concentrations at a ratio of 1, indicating no compound effect, and extended up to a maximum TIR value TIR(max) which indicates the increase of the eNOS transcription. EC50 values of transcription induction ratios as a function of compound concentration were determined graphically.
In general terms: A reporter such as luciferase makes a cellular process visible.
With `O=C1CCC(=O)N1CCOc1ccc(-c2ccc(F)c(Cl)c2)nc1` [Example 50, 1-(2-(6-(3-Chloro-4-fluorophenyl)pyridin-3-yloxy)ethyl)pyrrolidine-2,5-dione], the EC50 is < 500 nM.
The result for `O=C1CCC(=O)N1CCNc1nc(-c2ccc(F)cc2)cs1` [Example 34, 1-(2-(4-(4-Fluorophenyl)thiazol-2-ylamino)ethyl)pyrrolidine-2,5-dione] reads 500 to 5000 nM; that for `O=C1CSC=CN1CCCc1ccc(-c2ccc(F)cc2)nc1` [Example 25, 4-(3-(6-(4-Fluorophenyl)pyridin-3-yl)propyl)-4H-[1,4]thiazin-3-one], < 500 nM; that for `Cc1cc(-c2ccc(OCCN3C(=O)CCC3=O)cn2)ccc1F` [Example 86, 1-(2-(6-(4-fluoro-3-methylphenyl)pyridin-3-yloxy)ethyl)pyrrolidine-2,5-dione], < 500 nM.
Consider `O=C1CCC(=O)N1CCOc1ccc(-c2cccc3ccccc23)nc1` [Example 66, 1-(2-(6-(naphthalen-1-yl)pyridin-3-yloxy)ethyl)pyrrolidine-2,5-dione], for which the EC50 was 500 to 5000 nM.
`O=C(O)CCCC(=O)NCCCc1ccc(-c2ccc(F)cc2)nc1` [Example 17, 4-(3-(6-(4-Fluorophenyl)pyridin-3-yl)propylcarbamoyl)butyric acid]: the EC50 was 500 to 5000 nM.
In the case of `O=C1CSCCN1CCCc1ccc(-c2ccccc2Cl)nc1` [Example 7, 4-(3-(6-(2-Chlorophenyl)pyridin-3-yl)propyl)thiomorpholin-3-one], the EC50 was in the range of 500 to 5000 nM.
On to `Cc1csc(-c2ccc(OCCN3C(=O)CCC3=O)cn2)c1` [Example 52, 1-(2-(6-(4-methylthiophen-2-yl)pyridin-3-yloxy)ethyl)pyrrolidine-2,5-dione], for which the EC50 is < 500 nM.
For `O=C1CCCCCN1CCCc1ccc(-c2ccc(F)cc2)nc1` [Example 18, 1-(3-(6-(4-Fluorophenyl)pyridin-3-yl)propyl)azepan-2-one], the EC50 is < 500 nM.
Take `N#Cc1cccc(-c2ccc(OCCN3C(=O)CCC3=O)cn2)c1` [Example 64, 1-(2-(6-(3-cyanophenyl)pyridin-3-yloxy)ethyl)pyrrolidine-2,5-dione]: the EC50 lay in the range of 500 to 5000 nM.
